Experimental data reported in PMC3235747, “Bioassay-Guided Isolation of Cytotoxic Cycloartane Triterpenoid Glycosides from the Traditionally Used Medicinal Plant Leea indica” (Evidence-based Complementary and Alternative Medicine : eCAM, 2011).
≈ marks a conversion by molar mass, not a printed value. Where “and” joins values, the source holds several entries; their conditions need not be identical. Identical values can stand only once. Like-named read-outs stand apart in the source and are kept apart here.

Columns and labels:
Assay type in all cases: cell-based, human
[1] = test system: Ca Ski cells; assay: Trypan blue exclusion (TBE) assay, viable cell count; details: 60 μM
Experimental: Ca Ski cells were cultured at a density of 1 × 10^6 cells/mL in 60 mm culture dishes. After 24 h of attachment, the cells were treated without or with 60 μM of MAA for different time periods. After 6–72 h, the cells were harvested, washed with medium, and the cell pellets were resuspended in medium. After incubation in 0.4% trypan blue for 5 min, viable cells were counted using a hemocytometer. At the indicated time point straight before the cells were harvested, the cells were visualized under an inverted phase-contrast microscope (Motic) to observe the cell morphological changes upon treatment, and photographs were taken.

[2] = test system: Ca Ski cells; assay: Cell cycle analysis by PI staining and flow cytometry; details: 60 μM
Experimental: The cell cycle distribution was assessed using propidium iodide (PI) staining. Ca Ski cells were seeded in 60 mm culture dishes (1 × 10^6 cells) and left 24 h for attachment. The cells were then treated without or with 60 μM MAA for 12–72 h. After the designated treatment period, both adherent and floating cells were harvested and washed twice with PBS. Cell pellets were resuspended in 100 μL of PBS and fixed with absolute ethanol and stored at −20°C for 24 h. Fixed cells were washed twice with PBS, and the cell pellets were incubated in a buffer containing 50 μg/mL PI, 0.1% sodium citrate, 0.1% Triton-X-100, and 100 μg/mL RNase A for 45 min in the dark at room temperature. The percentage of cells in the sub-G1, G1, S, and G2/M-phases of the cell cycle was then analyzed using a FACS Calibur flow cytometer (Beckton Dickinson). Data were acquired and analyzed using Cell Quest software (Becton Dickinson).

[3] = test system: MRC 5 normal cells; assay: MTT assay, 72 h exposure, MRC 5 normal cells; details: for IC50: Homo sapiens, MRC5, 72 h; for fold higher IC50 against MRC 5 compared to CPT: MRC 5, relative to camptothecin
Experimental: (§1) The human cervical epidermoid carcinoma cell line (Ca Ski, ATCC number CRL-1550) and human fibroblast cell line (MRC 5, ATCC number CCL-171) were purchased from the American Type Culture Collection (ATCC, USA). Ca Ski cells were maintained in RPMI 1640 Medium (Sigma) and MRC 5 cells in EMEM (Eagle Minimum Essential Medium) (Sigma). The media were supplemented with 10% (v/v) heat-inactivated fetal bovine serum (PAA Lab, Austria), 100 μg/mL streptomycin and 100 unit/mL penicillin (PAA Lab, Austria), and 50 μg/mL amphotericin B (PAA Lab, Austria). The media were filter-sterilized using a 0.22 μm filter membrane (Minisart, Sartorius stedim). The cells were cultured in 5% CO2 incubator at 37°C in a humidified atmosphere. MTT assay was modified from Mossmann and used to evaluate the cytotoxic effects of each fraction and compounds. MTT assay is widely used to assess the viability and/or the metabolic state of the cells based on mitochondrial respiratory activity. A total of 5 × 10^3 cells were seeded into each well of 96-well plates and allowed to adhere for 24 h. After 24 h, the cells were treated with the fractions or compounds in the final concentrations ranging from 3.125 to 100 μg/mL. Each concentration was performed in triplicate well. Control cells were treated with vehicle DMSO to get the final concentration of 0.5% v/v. The cells were then incubated for 72 h. After 72 h exposure period, MTT (5 mg/mL) was added and further incubated for 4 h at 37°C. The medium was then aspirated and the crystals formed were dissolved in 150 μL DMSO. The absorbance was measured at 570 nm against the reference wavelength of 650 nm. The percentage of viability was calculated based on the formula: Viability (%) = (absorbance of treated cells/absorbance of control cells) × 100%. The IC50 (concentration that reduces cell viability to 50%) was derived from the dose-response curves. MRC 5 cell line was used as a normal cell model for the calculation of selectivity index (SI). SI value was calculated by dividing the IC50 value of the MRC 5 cell line with the IC50 value of Ca Ski cell line.

[4] = test system: Ca Ski cells; assay: MTT recovery assay (72 h exposure then 72 h recovery)
Experimental: In order to determine whether the cytotoxicity is cytostatic or cytocidal, a recovery assay was conducted whereby after the 72 h incubation (exposure period), the medium containing the compound was removed, washed with medium, and replaced with medium alone for a recovery period of 72 h followed by addition of MTT and measurement as described earlier. A sample is showing cytostatic effect when the IC50 in the recovery assay was higher than that of the exposure assay. Whereas for cytocidal effect, the IC50 obtained in the recovery assay is similar to that shown by the exposure assay.

[5] = test system: proliferating cell nuclear antigen (PCNA) expression in Ca Ski cells; assay: Q-PCR analysis of PCNA expression; details: 20–100 μM for 24 h; 60 μM for 0–24 h; relative to untreated control, normalized with GAPDH
Experimental: A total of 1 × 10^6 Ca Ski cells were seeded into 60 mm culture dishes and incubated for 24 h for attachment. Cells were then treated without or with 20-100 μM of MAA for 24 h. For time-course study, cells were treated with 60 μM MAA for 0, 3, 6, 12, and 24 h. After specific treatment period, cells were harvested and total RNA was isolated using the RNAqueous-4PCR kit (Applied Biosystem) according to the manufacturer's directions. The RNA concentration was determined using spectrophotometry. The gene expression of PCNA was assessed by one-step SYBR Green relative real-time PCR (Rotor-Gene System, Qiagen) and normalized to GAPDH reference control amplifications. The primer sequences for PCNA and GAPDH were forward [NT], reverse [NT] and forward [NT], reverse [NT], respectively. The PCR amplification reactions were carried out in a total volume of 25 μL for 30 cycles of 45 seconds at 95°C, 45 seconds at 56°C, and 120 seconds at 72°C. The mean fluorescence threshold value (CT) of each sample was obtained according to the manufacturer's guidelines and used to determine ΔCT values where by ΔCT = CT target gene (PCNA) - CT reference gene (GAPDH).

[6] = test system: Ca Ski cervical cancer cells; assay: MTT assay, 72 h exposure, Ca Ski cells; details: for decrease in cell viability: Ca Ski cells, 3.125–100 μg/mL
Experimental: as §1, with “curves.” for “curves. MRC 5 cell line was used as a normal cell model for the calculation of selectivity index (SI). SI value was calculated by dividing the IC50 value of the MRC 5 cell line with the IC50 value of Ca Ski cell line.”

[7] = MTT assay, 72 h exposure, Ca Ski cells; details: human
Experimental: as §1, with “curves.” for “curves. MRC 5 cell line was used as a normal cell model for the calculation of selectivity index (SI). SI value was calculated by dividing the IC50 value of the MRC 5 cell line with the IC50 value of Ca Ski cell line.”

[8] = Homo sapiens, Ca-Ski, 72 h, MTT, 72 h exposure

Structure (SMILES): CC(C)=CCCC(C)C1CCC2(C)C3CCC4C(C)(C(=O)O)C(OC5OCC(O)C(O)C5O)CC(O)C45CC35CCC12C [MAA, 1α, 3β-dihydroxy-cycloart-24-ene-28-oic acid 3-O-[α-L-arabinopyranoside]]
- effect on cell proliferation (viable cell count) ([1]; 6 h): modestly inhibited the cell proliferation
- effect on cell proliferation (viable cell count) ([1]; 12 h and 24 h): prominent antiproliferative effect
- proportion of S-phase and G2/M-phase cells versus untreated cells ([2]; 12 and 24 h): significantly higher
- increase of hypodiploid (sub-G1) cells ([2]; after 72 h): about 20 fold
- IC50 ([3]; MTT, 72 h exposure): 94.32 ± 0.75 µg/mL (≈ 156 µM)
- fold higher IC50 against MRC 5 compared to CPT [3]: approximately 20 fold
- IC50 in the recovery assay compared with the exposure assay [4]: almost the same to the exposure assay
- expression of PCNA [5]: significantly decreased
- decrease in cell viability ([6]; 72 h): 20–95%
- IC50 [6, 8]: 19.2 µM and 11.6 µg/mL
- selectivity ratio at 72 h ([7]; Ca Ski cervical carcinoma cells vs MRC 5 fibroblast cells, Ca Ski vs MRC 5, read-out: selectivity index (IC50 MRC 5 / IC50 Ca Ski), times more cytotoxic to Ca Ski cells compared to MRC5): ~8

Structure (SMILES): CC(C)=CCCC(C)C1CCC2(C)C3CCC4C(C)(C(=O)O)C(OC5OCC(O)C(O)C5O)CC(O)C45CC35CCC12C [MAX, 1α, 3β-dihydroxy-cycloart-24-ene-28-oic acid 3-O-[β-D-xylopyranoside]]
- fold higher IC50 against MRC 5 compared to CPT [3]: ~17 fold
- IC50 on MRC 5 ([3]; MTT, 72 h exposure): 79.25 ± 0.66 µg/mL (≈ 131 µM)
- decrease in cell viability ([6]; 72 h): 6–90%
- IC50 ([6]; MTT, 72 h exposure): 33.3 µM
- IC50 for Ca Ski cells ([6]; MTT, 72 h exposure): 20.13 ± 0.21 µg/mL
- selectivity ratio at 72 h [7]: ~4

Structure (SMILES): CC[C@@]1(O)C(=O)OCc2c1cc1n(c2=O)Cc2cc3ccccc3nc2-1 [camptothecin, reference compound]
- IC50 ([3]; MTT, 72 h exposure): 4.74 ± 0.33 µg/mL (≈ 13.6 µM)
- IC50 [6, 8]: 2.51 ± 0.33 µg/mL
